Measured values taken from patent US10414811B2, “Protease-resistant lipidated GLP-1 analogs” (MEDIMMUNE LIMITED, priority 2015, dated 2019).
Where two headings read alike, the source gives them in different places. Numbered stars: 1 amine (or outer) side, 2 acyl side, 3 side chain; on linkers, the order of the positions; unused ones are H or OH. Square brackets hold non-standard residues; d marks the D form. Side chains are listed from the residue outwards. Peptide text beside a SMILES is read from it. * marks the point of attachment. γGlu = O=C(O)[C@H](CCC(=O)[*:2])N[*:1]; Palmitoyl = CCCCCCCCCCCCCCCC(=O)*; αMeF = C[C@](N)(Cc1ccccc1)C(=O)O; αMeK = C[C@](N)(CCCCN)C(=O)O; Lauroyl = CCCCCCCCCCCC(=O)*; αMeS = C[C@](N)(CO)C(=O)O; AEEA = NCCOCCOCC(=O)O; Aib = CC(C)(N)C(=O)O

Columns and labels:
Assay type in all cases: cell-based
[1] = molecular target: T1, human GLP-1 receptor (GLP-1R) (Homo sapiens, UniProt P43220); assay: cAMP assay, human GLP-1R cells
T1 construct: expressed in transfected cells
T1 sequence (P43220 24-463): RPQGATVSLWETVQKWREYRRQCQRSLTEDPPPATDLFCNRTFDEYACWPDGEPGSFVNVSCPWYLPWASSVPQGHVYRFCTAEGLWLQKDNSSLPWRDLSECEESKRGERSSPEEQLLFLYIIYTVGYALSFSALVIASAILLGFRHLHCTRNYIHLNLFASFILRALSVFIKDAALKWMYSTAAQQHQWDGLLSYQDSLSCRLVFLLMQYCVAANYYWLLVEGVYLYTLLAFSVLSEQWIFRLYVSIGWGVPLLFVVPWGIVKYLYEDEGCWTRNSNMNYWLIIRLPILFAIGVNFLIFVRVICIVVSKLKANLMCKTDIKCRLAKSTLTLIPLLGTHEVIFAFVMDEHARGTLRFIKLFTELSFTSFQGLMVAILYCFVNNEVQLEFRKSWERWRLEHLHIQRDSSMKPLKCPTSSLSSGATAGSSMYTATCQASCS
Procedure, shortened: (§1)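 Peptide-stimulated cAMP measured by two-step HTRF after a 30 min room-temperature incubation with receptor-expressing cells (hGLP-1R, hGIPR at 1×10^5 cells/ml; hGCGR at 2×10^5 cells/ml). Duplicate dilutions; EC50 from 4-parameter logistic fit of % Delta F.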

[2] = molecular target: T2, human glucagon receptor (GCGR) (Homo sapiens, UniProt P47871); assay: cAMP assay, human GCGR cells
T2 construct: expressed in transfected cells
T2 sequence (P47871 26-477): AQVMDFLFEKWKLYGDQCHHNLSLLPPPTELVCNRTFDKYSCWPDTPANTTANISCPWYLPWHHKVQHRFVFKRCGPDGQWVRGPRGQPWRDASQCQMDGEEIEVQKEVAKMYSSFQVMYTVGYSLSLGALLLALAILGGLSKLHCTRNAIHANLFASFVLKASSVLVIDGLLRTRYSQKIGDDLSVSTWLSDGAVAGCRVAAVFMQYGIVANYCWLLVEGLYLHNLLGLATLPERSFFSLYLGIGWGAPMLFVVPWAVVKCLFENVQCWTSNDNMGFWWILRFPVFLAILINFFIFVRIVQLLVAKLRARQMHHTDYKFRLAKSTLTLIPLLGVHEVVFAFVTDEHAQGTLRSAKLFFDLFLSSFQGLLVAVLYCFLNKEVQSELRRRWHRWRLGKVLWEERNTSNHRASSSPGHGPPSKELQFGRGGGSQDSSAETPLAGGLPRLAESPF
Procedure, shortened: as §1

[3] = molecular target: T3, human glucose-dependent insulinotropic peptide receptor (GIPR) (Homo sapiens, UniProt P48546); assay: cAMP assay, human GIPR cells
T3 construct: expressed in transfected cells
T3 sequence (P48546 22-466): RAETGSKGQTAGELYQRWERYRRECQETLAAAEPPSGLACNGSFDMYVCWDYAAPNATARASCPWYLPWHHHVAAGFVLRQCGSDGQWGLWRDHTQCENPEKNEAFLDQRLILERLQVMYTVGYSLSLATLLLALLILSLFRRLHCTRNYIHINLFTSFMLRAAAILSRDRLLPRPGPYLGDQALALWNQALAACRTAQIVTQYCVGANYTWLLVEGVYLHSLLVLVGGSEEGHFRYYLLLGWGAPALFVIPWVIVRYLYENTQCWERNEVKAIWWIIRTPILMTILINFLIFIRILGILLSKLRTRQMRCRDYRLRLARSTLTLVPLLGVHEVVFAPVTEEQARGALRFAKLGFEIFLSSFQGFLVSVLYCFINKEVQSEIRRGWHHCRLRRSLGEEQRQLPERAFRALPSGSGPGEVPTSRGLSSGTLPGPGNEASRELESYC
Procedure, shortened: as §1

[4] = cAMP assay, first determination (n1), read-out: Primary assay EC50 GLP-1R n1
[5] = cAMP assay, second determination (n2), read-out: Primary assay EC50 GLP-1R n2
[6] = mean of n1 and n2, read-out: Mean pM GLP-1R
[7] = cAMP assay, first determination (n1), read-out: Primary assay EC50 Gluc-R (n1)
[8] = cAMP assay, second determination (n2), read-out: Primary assay EC50 Gluc-R (n2)
[9] = cAMP assay, first determination (n1), read-out: Primary assay EC50 GIP-R (n1)
[10] = cAMP assay, second determination (n2), read-out: Primary assay EC50 GIP-R (n2)

Structure (SMILES): CCCCCCCCCCCCCCCC(=O)N[C@@H](CCC(=O)NCCCC[C@H](NC(=O)[C@H](CCC(=O)O)NC(=O)C(C)(C)NC(=O)[C@@H](N)Cc1c[nH]cn1)C(=O)N[C@@H](CO)C(=O)N[C@@](C)(Cc1ccccc1)C(=O)N[C@H](C(=O)N[C@@H](CO)C(=O)N[C@@H](CC(=O)O)C(=O)N[C@H](C(=O)N[C@@](C)(CO)C(=O)N[C@@H](CO)C(=O)N[C@@](C)(Cc1ccccc1)C(=O)N[C@@H](CC(C)C)C(=O)N[C@@H](CCC(=O)O)C(=O)NCC(=O)N[C@@H](CCC(=O)O)C(=O)N[C@@H](C)C(=O)N[C@@H](C)C(=O)N[C@@](C)(CCCCN)C(=O)N[C@@H](CCC(=O)O)C(=O)N[C@@](C)(Cc1ccccc1)C(=O)N[C@H](C(=O)N[C@@H](C)C(=O)N[C@@](C)(Cc1ccccc1)C(=O)N[C@H](C(=O)N[C@H](C(=O)N[C@@](C)(CCCCN)C(=O)NCC(=O)NCC(N)=O)C(C)C)C(C)C)[C@@H](C)CC)C(C)C)[C@@H](C)O)C(=O)O [compound 96] (H-H[Aib]EK([γGlu-Palmitoyl])S[αMeF]TSDV[αMeS]S[αMeF]LEGEAA[αMeK]E[αMeF]IA[αMeF]VV[αMeK]GG-NH2; N-terminus assumed)
- EC50 [1, 4]: 920 pM
- EC50 [1, 5]: 570 pM
- EC50 [1, 6]: 746 pM
- EC50 [2, 7]: ≥ 27 nM
- EC50 [2, 8]: ≥ 27 nM
- EC50 [3, 9]: ≥ 27 nM
- EC50 [3, 10]: ≥ 27 nM

Structure (SMILES): CCCCCCCCCCCC(=O)N[C@@H](CCC(=O)NCCOCCOCC(=O)NCCOCCOCC(=O)NCCCC[C@H](NC(=O)[C@H](CCC(=O)O)NC(=O)[C@H](CCCCNC(=O)COCCOCCNC(=O)COCCOCCNC(=O)CC[C@H](NC(=O)CCCCCCCCCCC)C(=O)O)NC(=O)[C@H](Cc1ccc(O)cc1)NC(=O)[C@H](CO)NC(=O)[C@](C)(CO)NC(=O)[C@@H](NC(=O)[C@H](CC(=O)O)NC(=O)[C@H](CO)NC(=O)[C@@H](NC(=O)[C@](C)(Cc1ccccc1)NC(=O)[C@H](CO)NC(=O)CNC(=O)[C@H](CCC(=O)O)NC(=O)C(C)(C)NC(=O)[C@@H](N)Cc1c[nH]cn1)[C@@H](C)O)C(C)C)C(=O)N[C@@H](CCC(=O)O)C(=O)N[C@@H](C)C(=O)N[C@@H](C)C(=O)N[C@@](C)(CCCCN)C(=O)N[C@@H](CCC(=O)O)C(=O)N[C@@H](Cc1ccccc1)C(=O)N[C@H](C(=O)N[C@@H](CCCCNC(=O)COCCOCCNC(=O)COCCOCCNC(=O)CC[C@H](NC(=O)CCCCCCCCCCC)C(=O)O)C(=O)N[C@@H](Cc1ccccc1)C(=O)N[C@H](C(=O)N[C@H](C(=O)N[C@@H](CCC(=O)O)C(=O)NCC(=O)NCC(N)=O)C(C)C)C(C)C)[C@@H](C)CC)C(=O)O [compound 451] (H-H[Aib]EGS[αMeF]TSDV[αMeS]SYK([AEEA-AEEA-γGlu-Lauroyl])EK([AEEA-AEEA-γGlu-Lauroyl])EAA[αMeK]EFIK([AEEA-AEEA-γGlu-Lauroyl])FVVEGG-NH2; N-terminus assumed)
- EC50 ([1]; tris-lipidated peptides, mean of n1 and n2, read-out: Primary assay EC50 Mean pM GLP-1R): 93.4 pM
- EC50 ([1]; tris-lipidated peptides, replicate n1, read-out: Primary assay EC50 GLP-1R n1): 28.8 pM
- EC50 ([1]; tris-lipidated peptides, replicate n2, read-out: Primary assay EC50 GLP-1R n2): 158 pM
- EC50 ([2]; tris-lipidated peptides, first replicate, read-out: Primary assay EC50 Gluc-R (n1)): 19.7 nM
- EC50 ([3]; tris-lipidated peptides, first replicate, read-out: Primary assay EC50 GIP-R (n1)): 19.7 nM

Structure (SMILES): CC[C@H](C)[C@H](NC(=O)[C@](C)(Cc1ccccc1)NC(=O)[C@H](CCC(=O)O)NC(=O)[C@](C)(CCCCN)NC(=O)[C@H](C)NC(=O)[C@H](C)NC(=O)[C@H](CCC(=O)O)NC(=O)CNC(=O)[C@H](CCC(=O)O)NC(=O)[C@H](CC(C)C)NC(=O)[C@](C)(Cc1ccccc1)NC(=O)[C@H](CO)NC(=O)[C@](C)(CO)NC(=O)[C@@H](NC(=O)[C@H](CC(=O)O)NC(=O)[C@H](CO)NC(=O)[C@@H](NC(=O)[C@](C)(Cc1ccccc1)NC(=O)[C@H](CO)NC(=O)CNC(=O)[C@H](CCC(=O)O)NC(=O)C(C)(C)NC(=O)[C@@H](N)Cc1c[nH]cn1)[C@@H](C)O)C(C)C)C(=O)N[C@@H](C)C(=O)N[C@@](C)(Cc1ccccc1)C(=O)N[C@H](C(=O)N[C@H](C(=O)N[C@@H](CCCCNC(=O)CCCCCNC(=O)CCCCCNC(=O)CCCCCCCCCCCCCCCCC(=O)O)C(=O)NCC(=O)NCC(N)=O)C(C)C)C(C)C [compound 195]
- EC50 ([1]; first run (n1), cAMP activity, read-out: Primary assay EC50 GLP-1R n1): 170 pM
- EC50 [1, 6]: 107 pM
- EC50 ([1]; second run (n2), cAMP activity, read-out: Primary assay EC50 GLP-1R n2): 46 pM
- EC50 ([2]; first run (n1), cAMP activity of substituted and mono-lipidated peptides, read-out: Primary assay EC50 Gluc-R): ≥ 27 nM
- EC50 ([2]; second run (n2), cAMP activity, read-out: Primary assay EC50 Gluc-R): ≥ 27 nM
- EC50 ([3]; first run (n1), cAMP activity, read-out: Primary assay EC50 GIP-R): ≥ 27 nM
- EC50 ([3]; second run (n2), cAMP activity, read-out: Primary assay EC50 GIP-R): ≥ 27 nM

Structure (SMILES): CCCCCCCCCCCCCCCCCC(=O)N[C@@H](CCC(=O)NCCCC[C@H](NC(=O)[C@H](C)NC(=O)[C@H](C)NC(=O)[C@H](CCC(=O)O)NC(=O)CNC(=O)[C@H](CCC(=O)O)NC(=O)[C@H](CC(C)C)NC(=O)[C@](C)(Cc1ccccc1)NC(=O)[C@H](CO)NC(=O)[C@](C)(CO)NC(=O)[C@@H](NC(=O)[C@H](CC(=O)O)NC(=O)[C@H](CO)NC(=O)[C@@H](NC(=O)[C@](C)(Cc1ccccc1)NC(=O)[C@H](CO)NC(=O)CNC(=O)[C@H](CCC(=O)O)NC(=O)C(C)(C)NC(=O)[C@@H](N)Cc1c[nH]cn1)[C@@H](C)O)C(C)C)C(=O)N[C@@H](CCC(=O)O)C(=O)N[C@@](C)(Cc1ccccc1)C(=O)N[C@H](C(=O)N[C@@H](C)C(=O)N[C@@](C)(Cc1ccccc1)C(=O)N[C@H](C(=O)N[C@H](C(=O)N[C@@](C)(CCCCN)C(=O)NCC(=O)NCC(N)=O)C(C)C)C(C)C)[C@@H](C)CC)C(=O)O [compound 146]
- EC50 [1, 4]: 96 pM
- EC50 [1, 5]: 42 pM
- EC50 [1, 6]: 69 pM
- EC50 [2, 7]: ≥ 28 nM
- EC50 [2, 8]: ≥ 28 nM
- EC50 [3, 9]: ≥ 28 nM
- EC50 [3, 10]: ≥ 28 nM

Structure (SMILES): CC[C@H](C)[C@H](NC(=O)[C@](C)(Cc1ccccc1)NC(=O)[C@H](CCC(=O)O)NC(=O)[C@H](CCCCNC(=O)CC[C@H](NC(=O)CC[C@H](NC(=O)CC[C@H](NC(=O)CCCCCCCCCCCOc1ccc(C(=O)O)cc1)C(=O)O)C(=O)O)C(=O)O)NC(=O)[C@H](C)NC(=O)[C@H](C)NC(=O)[C@H](CCC(=O)O)NC(=O)CNC(=O)[C@H](CCC(=O)O)NC(=O)[C@H](CC(C)C)NC(=O)[C@](C)(Cc1ccccc1)NC(=O)[C@H](CO)NC(=O)[C@](C)(CO)NC(=O)[C@@H](NC(=O)[C@H](CC(=O)O)NC(=O)[C@H](CO)NC(=O)[C@@H](NC(=O)[C@](C)(Cc1ccccc1)NC(=O)[C@H](CO)NC(=O)CNC(=O)[C@H](CCC(=O)O)NC(=O)C(C)(C)NC(=O)[C@@H](N)Cc1c[nH]cn1)[C@@H](C)O)C(C)C)C(=O)N[C@@H](C)C(=O)N[C@@](C)(Cc1ccccc1)C(=O)N[C@H](C(=O)N[C@H](C(=O)N[C@@](C)(CCCCN)C(=O)NCC(=O)NCC(N)=O)C(C)C)C(C)C [compound 139]
- EC50 [1, 4]: 29 pM
- EC50 [1, 5]: 22 pM
- EC50 [1, 6]: 25.5 pM
- EC50 ([2]; Primary assay EC50 Gluc-R (n1), cAMP assay, first determination (n1)): ≥ 26 nM
- EC50 ([2]; read-out: Primary assay EC50 Gluc-R (n2), cAMP assay, second determination (n2)): ≥ 26 nM
- EC50 ([3]; Primary assay EC50 GIP-R (n1), cAMP assay, first determination (n1)): ≥ 26 nM
- EC50 ([3]; read-out: Primary assay EC50 GIP-R (n2), cAMP assay, second determination (n2)): ≥ 26 nM

Structure (SMILES): CC[C@H](C)[C@H](NC(=O)[C@](C)(Cc1ccccc1)NC(=O)[C@H](CCC(=O)O)NC(=O)[C@H](CCCCNC(=O)CC[C@H](NC(=O)CCCCCCCCCCCCCCCCC(=O)O)C(=O)O)NC(=O)[C@H](C)NC(=O)[C@H](C)NC(=O)[C@H](CCC(=O)O)NC(=O)CNC(=O)[C@H](CCC(=O)O)NC(=O)[C@H](CC(C)C)NC(=O)[C@](C)(Cc1ccccc1)NC(=O)[C@H](CO)NC(=O)[C@](C)(CO)NC(=O)[C@@H](NC(=O)[C@H](CC(=O)O)NC(=O)[C@H](CO)NC(=O)[C@@H](NC(=O)[C@](C)(Cc1ccccc1)NC(=O)[C@H](CO)NC(=O)CNC(=O)[C@H](CCC(=O)O)NC(=O)C(C)(C)NC(=O)[C@@H](N)Cc1c[nH]cn1)[C@@H](C)O)C(C)C)C(=O)N[C@@H](C)C(=O)N[C@@](C)(Cc1ccccc1)C(=O)N[C@H](C(=O)N[C@H](C(=O)N[C@@](C)(CCCCN)C(=O)NCC(=O)NCC(N)=O)C(C)C)C(C)C [compound 155]
- EC50 [1, 4]: 290 pM
- EC50 [1, 5]: 190 pM
- EC50 [1, 6]: 238 pM
- EC50 [2, 7]: ≥ 28 nM
- EC50 [2, 8]: ≥ 28 nM
- EC50 [3, 9]: ≥ 28 nM
- EC50 [3, 10]: ≥ 28 nM
